Columns and labels:
Experiment in all cases: KINOMEscan competition binding
Conditions in all cases: compound 10.0 µM
ANKK1 (human) = ANKK1 (human) (UniProt Q8NFD2)
SIK1 (human) = SIK1 (human) (UniProt P57059)
EPHB3 (human) = EPHB3 (human) (UniProt P54753)
CDC42BPA (human) = CDC42BPA (human) (UniProt Q5VT25)
EPHA8 (human) = EPHA8 (human) (UniProt P29322)
PTK6 (human) = PTK6 (human) (UniProt Q13882)
EPHB1 (human) = EPHB1 (human) (UniProt P54762)
MYO3A (human) = MYO3A (human) (UniProt Q8NEV4)
ACVR1B (human) = ACVR1B (human) (UniProt P36896)
PRKG2 (human) = PRKG2 (human) (UniProt Q13237)
CSF1R (human) = CSF1R (human) (UniProt P07333)
AKT1 (human) = AKT1 (human) (UniProt P31749)
CDC42BPB (human) = CDC42BPB (human) (UniProt Q9Y5S2)
MAPK1 (human) = MAPK1 (human) (UniProt P28482)
IGF1R (human) = IGF1R (human) (UniProt P08069)
EPHB2 (human) = EPHB2 (human) (UniProt P29323)
NTRK1 (human) = NTRK1 (human) (UniProt P04629)
[1] = test system: FGFR3 (human), P22607 [G697C]
ULK1 (human) = ULK1 (human) (UniProt O75385)
PRKAA2 (human) = PRKAA2 (human) (UniProt P54646)
MAP3K10 (human) = MAP3K10 (human) (UniProt Q02779)
MARK2 (human) = MARK2 (human) (UniProt Q7KZI7)
NTRK3 (human) = NTRK3 (human) (UniProt Q16288)
AXL (human) = AXL (human) (UniProt P30530)
[2] = test system: ABL1 (human), P00519 [Y253F]
MAP4K1 (human) = MAP4K1 (human) (UniProt Q92918)
NEK6 (human) = NEK6 (human) (UniProt Q9HC98)
FGFR2 (human) = FGFR2 (human) (UniProt P21802)
LIMK1 (human) = LIMK1 (human) (UniProt P53667)
PRKACB (human) = PRKACB (human) (UniProt P22694)
KDR (human) = KDR (human) (UniProt P35968)
FGFR1 (human) = FGFR1 (human) (UniProt P11362)
RPS6KA2 KD1 (human) = RPS6KA2 KD1 (human) (UniProt Q15349)
PHKG1 (human) = PHKG1 (human) (UniProt Q16816)
MAPK12 (human) = MAPK12 (human) (UniProt P53778)
IKBKB (human) = IKBKB (human) (UniProt O14920)
CAMK2D (human) = CAMK2D (human) (UniProt Q13557)
MAP3K4 (human) = MAP3K4 (human) (UniProt Q9Y6R4)
EPHA3 (human) = EPHA3 (human) (UniProt P29320)
FLT4 (human) = FLT4 (human) (UniProt P35916)
LYN (human) = LYN (human) (UniProt P07948)
[3] = test system: PIK3CA (human), P42336 [E545K]
Sequence of PIK3CA (human), P42336 [E545K] (P42336 whole entry E545K, looked up): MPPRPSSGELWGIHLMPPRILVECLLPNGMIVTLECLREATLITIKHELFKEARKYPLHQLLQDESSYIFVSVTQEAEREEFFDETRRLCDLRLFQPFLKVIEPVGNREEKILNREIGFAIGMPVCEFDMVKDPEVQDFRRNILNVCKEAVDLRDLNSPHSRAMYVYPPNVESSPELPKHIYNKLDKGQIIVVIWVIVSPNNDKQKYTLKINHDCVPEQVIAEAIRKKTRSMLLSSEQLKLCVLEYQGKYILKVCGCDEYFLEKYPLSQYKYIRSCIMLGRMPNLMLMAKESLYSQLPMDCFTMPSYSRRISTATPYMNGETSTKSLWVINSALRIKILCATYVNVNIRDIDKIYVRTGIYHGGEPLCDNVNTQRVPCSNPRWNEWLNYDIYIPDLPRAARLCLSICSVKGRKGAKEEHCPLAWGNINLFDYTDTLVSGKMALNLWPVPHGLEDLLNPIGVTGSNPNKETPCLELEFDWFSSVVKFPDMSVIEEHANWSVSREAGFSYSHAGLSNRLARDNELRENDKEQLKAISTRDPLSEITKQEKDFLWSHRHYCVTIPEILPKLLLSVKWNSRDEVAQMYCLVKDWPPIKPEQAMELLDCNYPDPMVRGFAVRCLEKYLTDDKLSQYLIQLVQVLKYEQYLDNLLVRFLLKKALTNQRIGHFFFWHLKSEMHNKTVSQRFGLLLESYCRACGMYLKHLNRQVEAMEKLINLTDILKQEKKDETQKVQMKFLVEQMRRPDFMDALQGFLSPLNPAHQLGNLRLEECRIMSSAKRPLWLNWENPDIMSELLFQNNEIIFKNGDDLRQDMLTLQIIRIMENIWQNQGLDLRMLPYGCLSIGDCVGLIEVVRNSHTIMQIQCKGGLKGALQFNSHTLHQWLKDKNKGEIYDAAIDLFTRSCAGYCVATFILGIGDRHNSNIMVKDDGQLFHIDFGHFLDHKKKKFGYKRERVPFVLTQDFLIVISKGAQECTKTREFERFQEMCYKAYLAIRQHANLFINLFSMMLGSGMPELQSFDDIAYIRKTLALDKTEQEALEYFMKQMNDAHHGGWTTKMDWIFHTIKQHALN

Sequence of MARK2 (human) (Q7KZI7 whole entry, looked up): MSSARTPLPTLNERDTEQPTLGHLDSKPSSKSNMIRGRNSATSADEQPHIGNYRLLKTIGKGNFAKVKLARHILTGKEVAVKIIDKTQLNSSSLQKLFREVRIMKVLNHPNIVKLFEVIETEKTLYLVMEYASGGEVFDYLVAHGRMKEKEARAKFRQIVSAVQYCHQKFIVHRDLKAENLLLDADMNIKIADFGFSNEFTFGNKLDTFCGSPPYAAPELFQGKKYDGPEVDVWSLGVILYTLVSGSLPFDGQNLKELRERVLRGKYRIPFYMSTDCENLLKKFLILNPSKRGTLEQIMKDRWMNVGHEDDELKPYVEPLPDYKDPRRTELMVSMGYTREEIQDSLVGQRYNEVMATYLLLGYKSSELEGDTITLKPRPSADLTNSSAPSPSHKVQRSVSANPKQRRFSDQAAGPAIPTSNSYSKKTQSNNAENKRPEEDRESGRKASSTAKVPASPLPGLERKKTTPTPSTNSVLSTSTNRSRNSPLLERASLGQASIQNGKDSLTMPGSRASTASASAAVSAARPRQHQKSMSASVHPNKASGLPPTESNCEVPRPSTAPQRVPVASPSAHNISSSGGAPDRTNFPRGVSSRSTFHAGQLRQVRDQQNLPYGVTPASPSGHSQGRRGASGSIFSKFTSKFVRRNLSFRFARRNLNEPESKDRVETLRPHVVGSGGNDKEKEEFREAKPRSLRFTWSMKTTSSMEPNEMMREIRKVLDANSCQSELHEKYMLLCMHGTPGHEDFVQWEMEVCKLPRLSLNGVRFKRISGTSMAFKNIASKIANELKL
Sequence of MAP4K1 (human) (Q92918 whole entry, looked up): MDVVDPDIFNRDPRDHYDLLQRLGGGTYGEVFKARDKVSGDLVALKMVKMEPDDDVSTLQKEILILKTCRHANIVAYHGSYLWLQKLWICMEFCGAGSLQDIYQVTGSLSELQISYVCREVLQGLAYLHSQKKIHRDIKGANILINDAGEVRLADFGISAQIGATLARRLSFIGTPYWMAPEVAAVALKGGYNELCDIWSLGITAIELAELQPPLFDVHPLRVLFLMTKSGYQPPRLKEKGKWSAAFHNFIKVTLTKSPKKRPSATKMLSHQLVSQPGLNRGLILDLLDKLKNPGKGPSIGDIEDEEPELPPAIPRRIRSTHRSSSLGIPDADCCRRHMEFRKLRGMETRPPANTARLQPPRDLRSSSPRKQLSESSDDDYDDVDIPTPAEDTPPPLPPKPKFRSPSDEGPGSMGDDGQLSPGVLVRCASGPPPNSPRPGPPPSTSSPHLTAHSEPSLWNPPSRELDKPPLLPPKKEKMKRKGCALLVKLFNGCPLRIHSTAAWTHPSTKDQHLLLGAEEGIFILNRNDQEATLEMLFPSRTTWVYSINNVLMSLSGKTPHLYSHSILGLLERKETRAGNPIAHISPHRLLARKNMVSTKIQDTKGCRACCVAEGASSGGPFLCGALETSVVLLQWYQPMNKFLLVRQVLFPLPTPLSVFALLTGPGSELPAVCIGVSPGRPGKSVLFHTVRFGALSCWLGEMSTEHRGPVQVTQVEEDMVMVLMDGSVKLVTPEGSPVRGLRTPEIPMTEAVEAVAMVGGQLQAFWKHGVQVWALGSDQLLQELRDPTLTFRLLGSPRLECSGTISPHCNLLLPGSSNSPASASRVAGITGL
Sequence of CDC42BPB (human) (Q9Y5S2 whole entry, looked up): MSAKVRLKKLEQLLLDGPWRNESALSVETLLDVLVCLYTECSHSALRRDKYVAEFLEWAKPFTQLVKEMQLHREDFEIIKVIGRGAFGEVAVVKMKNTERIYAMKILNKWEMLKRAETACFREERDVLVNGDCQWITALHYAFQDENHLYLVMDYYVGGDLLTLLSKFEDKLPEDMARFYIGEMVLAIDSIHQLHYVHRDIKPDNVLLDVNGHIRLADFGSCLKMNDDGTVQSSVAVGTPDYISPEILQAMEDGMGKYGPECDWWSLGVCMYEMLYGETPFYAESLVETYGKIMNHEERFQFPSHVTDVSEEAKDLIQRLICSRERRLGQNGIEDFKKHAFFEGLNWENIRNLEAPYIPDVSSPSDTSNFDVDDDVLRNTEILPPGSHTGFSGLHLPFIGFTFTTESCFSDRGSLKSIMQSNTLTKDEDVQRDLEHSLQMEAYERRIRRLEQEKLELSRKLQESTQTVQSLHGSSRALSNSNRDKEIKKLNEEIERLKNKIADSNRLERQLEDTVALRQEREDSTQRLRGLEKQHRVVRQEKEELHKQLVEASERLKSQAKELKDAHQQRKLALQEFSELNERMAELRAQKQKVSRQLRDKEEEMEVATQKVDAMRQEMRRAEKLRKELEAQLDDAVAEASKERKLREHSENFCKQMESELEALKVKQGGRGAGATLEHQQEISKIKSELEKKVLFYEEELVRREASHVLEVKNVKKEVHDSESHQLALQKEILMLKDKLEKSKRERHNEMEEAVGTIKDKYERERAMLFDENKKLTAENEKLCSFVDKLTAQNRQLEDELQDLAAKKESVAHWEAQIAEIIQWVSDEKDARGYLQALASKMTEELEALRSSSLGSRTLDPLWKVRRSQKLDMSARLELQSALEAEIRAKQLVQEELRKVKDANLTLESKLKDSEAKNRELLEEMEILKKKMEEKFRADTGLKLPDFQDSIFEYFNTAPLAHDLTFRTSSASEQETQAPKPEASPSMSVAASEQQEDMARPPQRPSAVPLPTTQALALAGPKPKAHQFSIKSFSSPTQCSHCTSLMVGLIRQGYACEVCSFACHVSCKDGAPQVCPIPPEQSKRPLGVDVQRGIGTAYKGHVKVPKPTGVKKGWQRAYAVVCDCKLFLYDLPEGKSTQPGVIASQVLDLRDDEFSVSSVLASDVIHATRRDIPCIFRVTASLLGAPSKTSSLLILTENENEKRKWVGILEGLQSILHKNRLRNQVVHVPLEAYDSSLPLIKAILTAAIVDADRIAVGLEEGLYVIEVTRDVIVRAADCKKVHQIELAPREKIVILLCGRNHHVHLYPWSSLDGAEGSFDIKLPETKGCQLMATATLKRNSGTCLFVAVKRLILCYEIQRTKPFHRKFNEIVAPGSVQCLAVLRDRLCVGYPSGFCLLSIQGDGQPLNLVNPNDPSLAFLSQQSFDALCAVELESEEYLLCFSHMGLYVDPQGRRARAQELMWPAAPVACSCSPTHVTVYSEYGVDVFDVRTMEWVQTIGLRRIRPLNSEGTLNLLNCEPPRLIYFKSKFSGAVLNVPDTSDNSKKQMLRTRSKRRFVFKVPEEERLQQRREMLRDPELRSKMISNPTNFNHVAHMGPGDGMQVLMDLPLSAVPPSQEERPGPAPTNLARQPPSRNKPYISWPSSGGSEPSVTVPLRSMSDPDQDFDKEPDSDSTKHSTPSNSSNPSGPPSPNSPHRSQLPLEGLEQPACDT
Sequence of LIMK1 (human) (P53667 whole entry, looked up): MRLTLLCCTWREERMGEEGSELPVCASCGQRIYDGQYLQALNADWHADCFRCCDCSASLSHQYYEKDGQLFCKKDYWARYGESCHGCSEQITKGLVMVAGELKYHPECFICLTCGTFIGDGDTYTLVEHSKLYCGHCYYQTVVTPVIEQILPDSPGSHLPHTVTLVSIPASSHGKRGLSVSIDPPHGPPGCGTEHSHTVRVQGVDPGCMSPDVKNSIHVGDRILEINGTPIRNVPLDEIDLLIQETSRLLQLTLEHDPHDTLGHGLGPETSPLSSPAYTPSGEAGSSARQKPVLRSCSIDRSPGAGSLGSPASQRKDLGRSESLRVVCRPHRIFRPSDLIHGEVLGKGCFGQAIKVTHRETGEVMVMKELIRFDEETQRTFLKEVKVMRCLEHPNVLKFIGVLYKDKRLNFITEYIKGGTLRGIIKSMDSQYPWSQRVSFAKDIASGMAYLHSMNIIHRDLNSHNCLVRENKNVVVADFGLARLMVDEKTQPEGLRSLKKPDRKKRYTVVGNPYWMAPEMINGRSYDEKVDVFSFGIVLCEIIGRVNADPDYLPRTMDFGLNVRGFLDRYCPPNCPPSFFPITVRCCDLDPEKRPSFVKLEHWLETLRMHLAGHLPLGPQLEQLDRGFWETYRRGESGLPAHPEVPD

## CN1C(=O)c2ccccc2N(C)c2nc(Nc3ccc(N4CCC(O)CC4)cc3)ncc21
ANKK1 (human)
  kinase still bound, per cent of control: 100%
SIK1 (human)
  kinase still bound, per cent of control: 79%
EPHB3 (human)
  kinase still bound, per cent of control: 100%
CDC42BPA (human)
  kinase still bound, per cent of control: 90%
EPHA8 (human)
  kinase still bound, per cent of control: 100%
PTK6 (human)
  kinase still bound, per cent of control: 86%
EPHB1 (human)
  kinase still bound, per cent of control: 100%
MYO3A (human)
  kinase still bound, per cent of control: 85%
ACVR1B (human)
  kinase still bound, per cent of control: 91%
PRKG2 (human)
  kinase still bound, per cent of control: 95%
CSF1R (human)
  kinase still bound, per cent of control: 5.8%
AKT1 (human)
  kinase still bound, per cent of control: 100%
CDC42BPB (human)
  kinase still bound, per cent of control: 100%
MAPK1 (human)
  kinase still bound, per cent of control: 100%
IGF1R (human)
  kinase still bound, per cent of control: 100%
EPHB2 (human)
  kinase still bound, per cent of control: 100%
NTRK1 (human)
  kinase still bound, per cent of control: 64%
[1]
  kinase still bound, per cent of control: 81%
ULK1 (human)
  kinase still bound, per cent of control: 16%
PRKAA2 (human)
  kinase still bound, per cent of control: 31%
MAP3K10 (human)
  kinase still bound, per cent of control: 100%
MARK2 (human)
  kinase still bound, per cent of control: 51%
NTRK3 (human)
  kinase still bound, per cent of control: 82%
AXL (human)
  kinase still bound, per cent of control: 88%
[2]
  kinase still bound, per cent of control: 1.9%
MAP4K1 (human)
  kinase still bound, per cent of control: 64%
NEK6 (human)
  kinase still bound, per cent of control: 96%
FGFR2 (human)
  kinase still bound, per cent of control: 63%
LIMK1 (human)
  kinase still bound, per cent of control: 97%
PRKACB (human)
  kinase still bound, per cent of control: 100%
KDR (human)
  kinase still bound, per cent of control: 97%
FGFR1 (human)
  kinase still bound, per cent of control: 61%
RPS6KA2 KD1 (human)
  kinase still bound, per cent of control: 68%
PHKG1 (human)
  kinase still bound, per cent of control: 95%
MAPK12 (human)
  kinase still bound, per cent of control: 100%
IKBKB (human)
  kinase still bound, per cent of control: 86%
CAMK2D (human)
  kinase still bound, per cent of control: 88%
MAP3K4 (human)
  kinase still bound, per cent of control: 100%
EPHA3 (human)
  kinase still bound, per cent of control: 83%
FLT4 (human)
  kinase still bound, per cent of control: 100%
LYN (human)
  kinase still bound, per cent of control: 80%
[3]
  kinase still bound, per cent of control: 100%

## CN1C(=O)c2ccccc2N(C)c2nc(NS(=O)(=O)c3ccc(N)cc3)ncc21
ANKK1 (human)
  kinase still bound, per cent of control: 32%
SIK1 (human)
  kinase still bound, per cent of control: 100%
EPHB3 (human)
  kinase still bound, per cent of control: 100%
CDC42BPA (human)
  kinase still bound, per cent of control: 90%
EPHA8 (human)
  kinase still bound, per cent of control: 100%
PTK6 (human)
  kinase still bound, per cent of control: 100%
EPHB1 (human)
  kinase still bound, per cent of control: 100%
MYO3A (human)
  kinase still bound, per cent of control: 100%
ACVR1B (human)
  kinase still bound, per cent of control: 100%
PRKG2 (human)
  kinase still bound, per cent of control: 100%
CSF1R (human)
  kinase still bound, per cent of control: 89%
AKT1 (human)
  kinase still bound, per cent of control: 100%
CDC42BPB (human)
  kinase still bound, per cent of control: 100%
MAPK1 (human)
  kinase still bound, per cent of control: 100%
IGF1R (human)
  kinase still bound, per cent of control: 100%
EPHB2 (human)
  kinase still bound, per cent of control: 94%
NTRK1 (human)
  kinase still bound, per cent of control: 77%
[1]
  kinase still bound, per cent of control: 100%
ULK1 (human)
  kinase still bound, per cent of control: 85%
PRKAA2 (human)
  kinase still bound, per cent of control: 96%
MAP3K10 (human)
  kinase still bound, per cent of control: 100%
MARK2 (human)
  kinase still bound, per cent of control: 100%
NTRK3 (human)
  kinase still bound, per cent of control: 72%
AXL (human)
  kinase still bound, per cent of control: 100%
[2]
  kinase still bound, per cent of control: 100%
MAP4K1 (human)
  kinase still bound, per cent of control: 80%
NEK6 (human)
  kinase still bound, per cent of control: 100%
FGFR2 (human)
  kinase still bound, per cent of control: 100%
LIMK1 (human)
  kinase still bound, per cent of control: 100%
PRKACB (human)
  kinase still bound, per cent of control: 100%
KDR (human)
  kinase still bound, per cent of control: 88%
FGFR1 (human)
  kinase still bound, per cent of control: 100%
RPS6KA2 KD1 (human)
  kinase still bound, per cent of control: 100%
PHKG1 (human)
  kinase still bound, per cent of control: 100%
MAPK12 (human)
  kinase still bound, per cent of control: 100%
IKBKB (human)
  kinase still bound, per cent of control: 100%
CAMK2D (human)
  kinase still bound, per cent of control: 100%
MAP3K4 (human)
  kinase still bound, per cent of control: 85%
EPHA3 (human)
  kinase still bound, per cent of control: 97%
FLT4 (human)
  kinase still bound, per cent of control: 100%
LYN (human)
  kinase still bound, per cent of control: 100%
[3]
  kinase still bound, per cent of control: 91%
